Patent publication US20050143346A1, “Composition for treating cancer containing n,n-dimethylphytosphingosine” (priority 2002, published 2005)

Legend:
[1] = test system: sphingosine kinase from mouse; experiment: Inhibition of sphingosine kinase activity ([32P]ATP, sphingosine-1-phosphate formation); assay type: biochemical; details: compared with dimethylsphingosine; 37° C. for 20 min; FIG. 3
Procedure: The same experiment was performed on dimethylsphingosine to compare with the effect of dimethylphytosphingosine of the present invention. Sphingosine kinase assay buffer was prepared as follows to determine an activity of sphingosine kinase: 20 mM Tris buffer, pH 7.2, 10 mM MgCl2, 20% glycerol, 1 mM dithiothreitol, 1 mM Na3VO4, 15 mM NaF, […] leupeptin and aprotinin, 1 mM PMSF and 0.5 mM 4-deoxypyridoxine.
The reaction was 200 μl, each 50 μM dimethylsphingosine and dimethylphytosphingosine dissolved in 0.25% Triton X-100, 10 ng of sphingosine kinase from mouse and 1 mM [32P] ATP were added, and reacted at 37° C. for 20 min. After completion of the reaction, the reaction was terminated by adding 20˜50 μl of 1N HCl. Following termination, lipid was separated and purified by adding 1 ml of chloroform, and dried under nitrogen gas. An inhibitory effect against sphingosine kinase was found by measuring isotope with scintillation counter and then determining produced sphingosine-1-phosphate. In the graph, indicated in FIG. 3, Y axis represents CPM and X axis represents concentration (μM).

HL60 cells = experiment: DNA fragmentation by agarose gel electrophoresis; assay type: cell-based; details: 24 hrs, FIG. 9
Procedure: DNA fragmentation as a representative characteristic of apoptosis was assessed at a level of concentration including cytotoxicity. Apoptosis is a programmed cell death, characterized by complicate biological characteristics including morphological changes, chromatin condensation, a formation of apoptotic body and the like. This experiment was performed to assess DNA fragmentation among them. HL60 cells were seeded (1×10^7 cell/10 ml), and incubated in 5% CO2 incubator at 37° C. for 24 hrs. Then, N,N-dimethylphytosphingosine and control substances (at concentration indicated in FIG. 9) was added and incubated for 24 hrs. All of substances were dissolved in EtOH. Cells were recovered by centrifugation, and then cell membrane was disrupted by adding lysis buffer (5 mM Tris-HCl (PH 7.4), 20 mM EDTA, 0.5% Triton X-100). After centrifuging at 12,000 rpm for 10 min, supernatant in which DNA fragments were dissolved was recovered. To the supernatant was added equivalent amount of phenol, vortexed, centrifuged at 12,000 rpm for 10 min, and then supernatant was recovered carefully. DNA extraction with phenol:chloroform:isoamylalcohol (25:24:1) or chloroform was performed in a same manner as the method with phenol. To the supernatant which was treated by various solvents was added a solution of 0.3 M sodium acetate (pH 5.2) in EtOH, and precipitated in a freezer at −20° C. for 24 hrs. After centrifuging at 12,000 rpm for 10 min, supernatant was decanted to obtain DNA pellets. 70% EtOH was added to the remaining DNA pellets to wash them. Again, after centrifuging, supernatant was discarded, the remaining DNA fragments were dissolved in TE buffer. To remove RNA in addition-to DNA fragments, […] of 0.5 mg/ml RNAse was added, and reacted at 37° C. for 30 min. DNA fragmentation was found by 1.2% agarose gel electrophoresis. […] N-acylsphingosine was known as apoptosis inducing substance, and DNA fragmentation was one example of such effects. […] Accordingly, it is considered that N,N-dimethylphytosphingosine of the present invention has excellent apoptosis inducing effect compared to N-acylsphingosine. It was not observed that CLA ceramide belonging to sphingosineceramide induced DNA fragmentation.
The following is the meaning of the symbols used in FIG. 9. • SM: DNA size marker • EtOH: Ethanol • 1: DMPS 12.5 μM • 2: DMPS 25.0 μM • 3: DMPS 50.0 μM • 4: C2 ceramide 25.0 μM • 5: C2 ceramide 50.0 μM • 6: CLA ceramide 25.0 μM • 7: CLA ceramide 50.0 μM

HL60 cell = experiment: MTT assay, apoptosis inducing effect on HL60 cell; assay type: cell-based; details: 0.5 M˜[…], 24 hrs, FIG. 4
Procedure: An apoptosis inducing effect of N,N-dimethylphytosphingosine was assayed. Anti-cancer effect is expressed through various signal transduction pathway depending on working mechanism and chemical structure, but consequently give rise to apoptosis which allows cells to be killed.
(§1) This experiment was performed by MTT assay. MTT (3-[4,5-Dimethylthiazol-2-yl]-2,5-diphenyltetrazolium) is a staining reagent displaying yellow color when it is dissolved in medium, but it is discolored to violet formazan by active dehydrogenase in mitochondria of viable cell. […] HL60 cell lines were seeded to 96-well plate at appropriate concentration, and incubated in 5% CO2 incubator at 37° C. for 24 hrs. Thereafter, individual sample to be assessed on apoptosis effect, i.e. phytosphingosine, C2 phytoceramide, tetraacetylphytosphingosine, C6 phytoceramide, C8 phytoceramide, C3 ceramide, sphinganine, dimethylsphingosine and dimethylphytosphingosine was diluted with serum free RPMI. Cells were treated with […]˜50 µM of the dilutions, and incubated for 24 hrs. MTT (final concentration: 0.5 mg/ml) was loaded to the individual well. After incubating for another 3 hrs and dissolving the staining reagent with pipette, the absorbance was measured at 570 nm.

Bacillus licheniformis = experiment: Antibacterial effect, colony counting; assay type: cell-based; details: B. licheniformis, FIG. 12
Procedure: (§2) The present inventors performed experiment using Bacillus licheniformis (Gram positive bacteria) and E. coli(Gram negative bacteria) to test an antibacterial activity of N,N-dimethylphytosphingosine. In this experiment, autoclaved LB (bactopeptone 10 g/l, yeast extracts 5 g/l, and sodium chloride 10 g/l) or TS (triptone 15 g/l, soitone 5 g/l, and sodium chloride 5 g/l) was used as culture medium, and cultured at 30° C. or 37° C. for 2-3 days. After culturing, an antibacterial capacity was measured by counting the number of cells. […] Each microbe was cultured, diluted successively with 10-fold, smeared on the medium, cultured again, and then dilution rate which formed 30-300 populations per plate medium was determined. After culturing each microbe, the culture was diluted with the determined dilution rate. At this time, 0.85% NaCl was used as a diluted solution. A sample which was prepared by above mentioned method was diluted successively with a solvent for preparing the sample. After obtaining the desired concentration, 1 ml of the diluted sample was added to 9 ml of a diluted solution of microbes, and then mixed thoroughly. After standing at 30° C. or 37° C. for 1 hr (with mixing occasionally), each 100 μl was smeared on the culture medium. After culturing under individual condition, the number of population was measured.

E. coli = experiment: Antibacterial effect, colony counting; assay type: cell-based; details: FIG. 12
Procedure: as §2

B104 cell = experiment: MTT assay, apoptosis inducing effect on B104 cell; assay type: cell-based; details: FIG. 7
Procedure: as §1
This Experiment was carried out in a manner identical to that described for example 3, except for using B104 cell to induce apoptosis.

HaCaT cell = experiment: MTT assay, apoptosis inducing effect on HaCaT cell; assay type: cell-based; details: FIG. 5
Procedure: as §1
This Experiment was carried out in an identical manner to that described for example 3, except for using HaCaT cell to induce apoptosis.

LLC-PK1 cell = experiment: MTT assay, apoptosis inducing effect on LLC-PK1 cell; assay type: cell-based; details: FIG. 6
Procedure: as §1
This Experiment was carried out in an identical manner to that described for example 3, except for using LLC-PK1 cell to induce apoptosis.

MDA-MB-231 cell = experiment: MTT assay, apoptosis inducing effect on MDA-MB-231 cell; assay type: cell-based; details: FIG. 8
Procedure: as §1
This Experiment was carried out in an identical manner to that described for example 3, except for using MDA-MB-231 cell to induce apoptosis.

[2] = test system: histone component presented in nucleosome of cytoplasm of cell lysates; experiment: Anti-histone antibody binding ELISA (mono- or oligosome detection); assay type: cell-based; details: FIG. 10
From the text: This experiment was based on the theory of ELISA. Briefly, Mono- or oligosome of degraded nucleic acid in cytoplasm can be detected by means of monoclonal antibodies which are specific for histones (H2A, H2B, H3 and H4) and single-stranded or double-stranded DNA. Cells which apoptosis was induced activated Ca2+ and Mg2+-dependent endonuclease, and the enzyme degraded adjacent double stranded DNA to form mono- or oligosome. On this account, histone which had been compactly bound to the DNA in nucleus was exposed to outside.
First, anti-histone antibody was immobilized to 96 well plate. Coating solution was added, and reaction was performed at ambient temperature for 1 hr. Then, each sample was treated to obtain cell lysates, and histone component presented in nucleosome of cytoplasm of cell lysates was adhered to the 96 well plate to which anti-histone antibody was immobilized. Above procedure was performed at 15˜25° C. for 90 min. Then, anti-DNA-peroxidase (POD) was bound to DNA part of nucleosome of cytoplasm. This procedure was performed at ambient temperature for 90 min. Unbound peroxidase conjugate was washed, ABTS(2,2′-azino-di-[3-ethylbenzthiazoline sulfonate]) was added as an substrate, reacted for 10˜20 min, and then absorbance was measured at 405 nm.

protein kinase C(PKC) = experiment: PKC inhibition effect using epidermis cells of rat; assay type: cell-based; details: 100 μM and 400 μM; compared with other sphingolipid derivatives; FIG. 11
Procedure: The present inventors assessed an inhibitory effect of N,N-dimethylphytosphingosine on protein kinase C(PKC) using epidermis cells of rat. Epidermis cells were cultured to 2×10^7 cell/ml. N,N-dimethylphytosphingosine and other sphingolipid derivatives (100 μM and 400 μM respectively) were added, and reacted. The cells were washed with PBS and disrupted with homogenizer. The disruption of cells was centrifuged, and the supernatant was passed through DE52 column to obtain a portion containing protein kinase C. For activated PKC reaction, a tube containing 5 μl of PKC coactivation 5× buffer, PKC activation 5× buffer, PKC biotinylated peptide substrate, [32P]ATP mix respectively were prepared as a control. Also, other individual tubes containing 5 μl of PKC coactivation 5× buffer, control 5× buffer, PKC biotinylated peptide substrate, [32P]ATP mix were prepared further containing 5 μl of the relevant enzyme in each tube. The reaction was performed at 30° C. for 5 min. Thereafter, terminating solution (12.5 μl) was added to quench the reaction. The reaction solution (10 μl) was dropped on SAM2™ membrane, washed with 2 M NaCl (1×, 30 seconds), 2 M NaCl (3×, 2 min), 1% H3PO4 and 2M NaCl solution (4×, 2 min), and distilled water (2×, 30 seconds), dried and then measured isotope to assess the effect of PKC inhibition. The results were in FIG. 11. […]

| Compound | inhibitory effect against sphingosine kinase (produced sphingosine-1-phosphate, CPM) [1] | DNA fragmentation (electrophoresis), result in words (HL60 cells; DMPS 12.5-50.0 μM, C2 ceramide and CLA ceramide 25.0 and 50.0 μM) | concentration at which DNA fragmentation was induced (HL60 cells) [µM] | degree of DNA fragmentation compared to C2 ceramide (HL60 cells) | cell death (MTT assay) (HL60 cell) | amount of colonies reduced to (Bacillus licheniformis; 1 μg/ml) [%] | number of colonies (Bacillus licheniformis) | amount of colonies reduced to (E. coli; 1 μg/ml) [%] | number of colonies (E. coli) | cell death (MTT assay) (B104 cell) | cell death effect compared to dimethylsphingosine (B104 cell) | cell death (MTT assay) (HaCaT cell) | cell death effect compared to dimethylsphingosine (HaCaT cell) | cell death (MTT assay) (LLC-PK1 cell) | cell death effect compared to dimethylsphingosine (LLC-PK1 cell) | cell death (MTT assay) (MDA-MB-231 cell) | cell death effect compared to dimethylsphingosine (MDA-MB-231 cell) | absorbance (A405 nm-A490 nm), anti-histone antibody binding [2] | inhibitory effect on PKC (protein kinase C(PKC)) |
| --- | --- | --- | --- | --- | --- | --- | --- | --- | --- | --- | --- | --- | --- | --- | --- | --- | --- | --- | --- |
| CCCCCCCCCCCCCCC(O)C(O)C(CO)N(C)C (centres unmarked) [N,N-dimethylphytosphingosine] | more strong inhibitory effect than that of dimethylsphingosine | obvious ladder-like DNA fragmentation at a lower concentration compared to C2-ceramide | 25.0 | stronger than C2 ceramide | induced cell death | 40 | reduced | 40 | reduced | induced cell death | far superior to that of dimethylsphingosine | induced cell death | far superior to that of dimethylsphingosine | induced cell death | far superior to that of dimethylsphingosine | induced cell death | far superior to that of dimethylsphingosine | higher absorbance (A405 nm-A490 nm) than other controls | stronger inhibitory effect than any other compound |
| CCCCCCCCCCCCC/C=C/[C@@H](O)[C@H](CO)NC(C)=O [C2-ceramide, N-acylsphingosine, reference compound] |  |  | 25.0 |  |  |  |  |  |  |  |  |  |  |  |  |  |  |  |  |
